From publication PMC9299640, “Incorporation of β‐Alanine in Cu(II) ATCUN Peptide Complexes Increases ROS Levels, DNA Cleavage and Antiproliferative Activity” (Chemistry (Weinheim an Der Bergstrasse, Germany), 2021)

Assays:
[1] = tested on: SiHa (cervical carcinoma); assay: Antiproliferative activity, sulforhodamine B (SRB) assay; type: cell-based, human
Protocol: (§1) The antiproliferative activity of selected Cu(II) ATCUN complexes was investigated towards different tumor cell lines (HCT116, NCI-H460, SiHa and SW480 cells) and expressed as the IC50 values.
(§2) Table S13. Accumulation of Cu in HCT116 cells after 24 h incubation with Cu-GGH, 1, 3, 4 and CuCl2 (70 µM) as determined by ICP-MS (n = 3), and cytotoxic activity in human cancer cell lines HCT116, NCI-H460, SiHa and SW480 expressed as the IC50 ± SD (in µM) as well as by the residual viable cells after treatment with 70 μM of the respective compound (%) as determined by the SRB assay (exposure time 72 h). accumulated Cu IC50 values […]
(§3) a – indicates no antiproliferative activity observed after treatment with the respective compound at 70 μM for 72 h.
(§4) S-12.1 Determination of IC50 values against HCT116, NCI-H460, SiHa and SW480 […]
(§5) HCT116, SW480 and NCI-H460 cells were supplied by ATCC, while SiHa cells were supplied by Dr. David Cowan, of the Ontario Cancer Institute, Canada. The cells were grown in α-MEM (Life Technologies) supplemented with 5% fetal calf serum (Moregate Biotech) at 37 °C in a humidified incubator with 5% CO2. […]
(§6) in 96-well plates and left to settle for 24 h. Compounds were added as water solutions to the plates in a series of 3-fold dilutions for 72 h before the assay was terminated by addition of 10% trichloroacetic acid (Merck Millipore) at 4 °C for 1 h. Cells were stained […]
(§7) with 0.4% sulforhodamine B (Sigma-Aldrich) in 1% acetic acid for 30 min in the dark at room temperature and then washed with 1% acetic acid to remove unbound dye. The stain was dissolved in unbuffered Tris base (10 mM, Serva) for 30 min on a plate shaker in the dark and quantified on a BioTek EL808 microplate reader at an absorbance of 490 nm with a reference wavelength of 450 nm to determine the percentage of cell-growth inhibition by determining the absorbance of each sample relative to a negative (no inhibitor) and a no-growth control (day 0). IC50 values were calculated with SigmaPlot 12.5 (Systat Software Inc.) using a three-parameter logistic sigmoidal dose−response curve between the calculated growth inhibition and the compound concentration. The presented IC50 values are the mean of at least three independent experiments, where 10 concentrations were tested in duplicate for each compound.
(§8) Ventures), by diluting with a matrix-matched solution with regard to HNO3 and Tm concentration, producing calibration standards with concentrations of 0.5, 1, 3, 5, 7, 10, […]
(§9) The measured Cu concentrations in the cell accumulation samples were in the range of 27–82 μg/L. The reported values are the means of at least three independent accumulation experiments conducted in triplicates with blank wells for each substance to account for unspecific binding of the Cu(II) complexes to the plastic of the well plates.
(§10) Accumulation values have been corrected by subtracting the average amount Cu determined in the cell-free wells.
(§11) Calibration curves for Cu were prepared with concentrations ranging from 0.5–100 µg/L. The limit of detection (LOD) was defined as 3 times the random error in the y-direction (Sy/x) of the calibration curve divided by the slope of the calibration curve. The limit of quantification (LOQ) was defined as 10 times the random error in the y-direction (Sy/x) of the calibration curve divided by the slope of the calibration curve.42 The LOD was determined for Cu as 1.8 μg/L and the LOQ was 5.95 μg/L.

[2] = tested on: SW480 (colon adenocarcinoma); assay: as above; type: cell-based, human
Protocol: as §1, §2, §3, §4, §5, §6, §7, §8, §9, §10, §11

[3] = tested on: NCI-H460 (non-small cell lung carcinoma); assay: as above; type: cell-based, human; details: exposure 72 h, 3-fold dilutions, α-MEM + 5% fetal calf serum, 37 °C, mean ± SD of at least three independent experiments
Protocol: as §1, §2, §3, §4, §5, §6, §7, §8, §9, §10, §11

[4] = tested on: HCT116 (colorectal carcinoma); assay: as above; type: cell-based, human
Protocol: as §1, §2, §3, §4, §5, §6, §7, §8, §9, §10, §11

[5] = Detection of hydroxyl radicals (TPA) and hydrogen peroxide (PBSF) by fluorescence spectroscopy; type: biochemical; details: 40 μM complex or CuCl2, ascH− 1 mM, MOPS 50 mM pH 7.4, TPA 0.5 mM or PBSF 25 μM, up to 3.5 h, r.t.
Protocol: To similarly confirm increased DNA cleavage as a result of enhanced ROS formation when introducing β‐Ala2 in the ATCUN motif, the ^•OH and H2O2 production was monitored. To follow the evolution of these species, the oxidation of terephthalate (TPA → HO‐TPA) by ^•OH[40] and the perhydrolysis of pentafluorobenzenesulfonyl fluorescein (PBSF) into fluorescein by H2O2 [40] were analyzed by fluorescence spectroscopy. In Figure 5, the kinetics of ^•OH and H2O2 production by complexes 1 (Gly2), 3 (β‐Ala2), 4 (β‐Ala2; Lys1/4) and CuCl2 are depicted.
Figure 5 Kinetics of ^•OH (left) and H2O2 (right) production for 1, 3, 4 and CuCl2 (40 μM) in the presence of ascH^− (1 mM) in MOPS buffer (50 mM, pH 7.4) monitored by fluorescence evolution of HO‐TPA (λ ex 320 nm, λ em=428 nm) from TPA (0.5 mM), and fluorescein (λ ex=485 nm, λ em=513 nm) from PBSF (25 μM).
S-8 Detection of hydroxyl radicals and hydrogen peroxide
For the identification of generated ROS by Cu(II) ATCUN complexes during DNA cleavage, gel electrophoresis was used for a ROS quenching experiment (Figure 4). Detection of hydroxyl radicals and hydrogen peroxide generated by metallonucleases was additionally performed by fluorescence spectroscopy.
The fluorescent dyes disodium terephthalate (TPA) and pentafluorobenzenesulfonyl fluorescein (PBSF) were used for the detection of hydroxyl radicals and hydrogen peroxide, respectively. […]

[6] = after treatment with 70 μM, 72 h
[7] = exposure 72 h, 3-fold dilutions, α-MEM + 5% fetal calf serum, 37 °C, mean of at least three independent experiments

IC50 [1, 7]: > 70 µM
IC50 [2, 7]: > 70 µM
IC50 [3]: > 70 µM
IC50 ([4]; exposure 72 h, 3-fold dilutions, α-MEM + 5% fetal calf serum, 37 °C, Cu(II):peptide 1:1.05, mean ± SD of at least three independent experiments): > 70 µM
Compound: [Cl][Cu][Cl] [CuCl2, reference compound]
residual viable cells SiHa [1, 6]: 93 ± 22%
residual viable cells SW480 [2, 6]: – (indicates no antiproliferative activity observed after treatment with the respective compound at 70 μM for 72 h)
residual viable cells HCT116 [4, 6]: 87 ± 6%
catalytic ROS generation (•OH and H2O2 production, in words) [5]: highest ^•OH and H2O2 formation
